From US20110152236A1 (SANOFI-AVENTIS, priority 2008, published 2011) come the findings set out here.

Read-outs that look alike come from different tables or passages of the source.

The term melting point denotes the temperature, or range, at which the solid turns liquid. A word on the IC50: it is the concentration needed to halve the response being measured.

In data set [1] the target is T1, human CB1 receptor (Homo sapiens, UniProt P21554).
T1 construct: U373MG cells naturally expressing the human CB1 receptor; endogenous in cells; host or cells: U373MG cells
The experiment in a line: intracellular cyclic AMP test in U373MG cells (HTRF cAMP Dynamic Kit). Type of data set: cell-based. As to the method: The compounds according to the invention were the subject of pharmacological tests for determining the activity with respect to human cannabinoid CB1-type receptors. The efficacy of the compounds of formula (I) was determined in a functional test which measures cannabinoid CB1 receptor activity (intracellular cyclic AMP test). The test for detecting intracellular cyclic AMP in U373MG cells naturally expressing the human CB1 receptor was carried out as described in the following reference: Bouaboula et al., 1995, J. Biol. Chem. 270:13973-13980. The HTRF cAMP Dynamic Kit from CisBio was used to quantify the intracellular cyclic AMP. In this test, the IC50 values are between 0.001 μM and 2 μM.
In general terms: Time-resolved FRET reads energy transfer from a long-lived donor to a nearby acceptor.

Data set [2] concerns the target T2, cannabinoid CB1 receptor (Mus musculus, UniProt P47746).
T2 construct: from tissue; host or cells: whole animal (mice; male CD1 mice in the gastrointestinal transit model)
The experiment in a line: model of inhibition of gastrointestinal transit induced by racemic CP55,940 in mice. As to conditions: 1 mg/kg per os; 3 hours after administration of the product; CP55,940 0.15 mg/kg ip; male CD1 mice. Type of data set: in vivo. As to the method:
The antagonistic activity of the compounds was also shown by means of the model of inhibition of gastrointestinal transit induced by racemic CP55,940 (1RS,3RS,4RS-3-[hydroxy-2-(1,1-dimethylheptyl)phenyl]-4-(3-hydroxypropyl)cyclohexan-1-ol) in mice, according to the method described by Rinaldi-Carmona et al., J. Pharmacol, Exp. Ther. 2004, 310, 905-914. Briefly, male CD1 mice receive the test product per os 30 minutes or 2 hours before administration of the racemic CP55,940 agonist (1RS,3RS,4RS-3-[hydroxy-2-(1,1-dimethylheptyl)phenyl]-4-(3-hydroxypropyl)cyclohexan-1-ol) (0.15 mg/kg ip in 10% Cremophor). After a further 30 minutes, the animals receive a charcoal bolus po. Thirty minutes later, the animals are euthanized (CO2/O2) and the intestine is dissected. The progression of the charcoal bolus in the intestine is expressed as percentage of the total length of the intestine.

The mark [3] stands for this setting: U373MG cells naturally expressing the human CB1 receptor, intracellular cyclic AMP, read-out: IC50.

T1 sequence (P21554 whole entry): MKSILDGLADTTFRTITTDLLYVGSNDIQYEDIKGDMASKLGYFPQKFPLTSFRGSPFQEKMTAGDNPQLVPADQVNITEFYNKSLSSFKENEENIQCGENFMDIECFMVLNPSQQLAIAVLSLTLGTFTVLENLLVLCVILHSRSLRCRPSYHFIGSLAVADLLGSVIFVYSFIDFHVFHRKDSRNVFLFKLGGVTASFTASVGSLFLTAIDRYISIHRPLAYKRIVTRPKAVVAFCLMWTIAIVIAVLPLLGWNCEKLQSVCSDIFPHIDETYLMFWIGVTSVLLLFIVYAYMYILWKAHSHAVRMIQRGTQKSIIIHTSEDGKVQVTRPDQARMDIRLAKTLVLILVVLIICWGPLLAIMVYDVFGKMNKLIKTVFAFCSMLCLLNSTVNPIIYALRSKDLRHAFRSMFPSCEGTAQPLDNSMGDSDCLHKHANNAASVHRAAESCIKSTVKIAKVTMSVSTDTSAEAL
T2 sequence (P47746 whole entry): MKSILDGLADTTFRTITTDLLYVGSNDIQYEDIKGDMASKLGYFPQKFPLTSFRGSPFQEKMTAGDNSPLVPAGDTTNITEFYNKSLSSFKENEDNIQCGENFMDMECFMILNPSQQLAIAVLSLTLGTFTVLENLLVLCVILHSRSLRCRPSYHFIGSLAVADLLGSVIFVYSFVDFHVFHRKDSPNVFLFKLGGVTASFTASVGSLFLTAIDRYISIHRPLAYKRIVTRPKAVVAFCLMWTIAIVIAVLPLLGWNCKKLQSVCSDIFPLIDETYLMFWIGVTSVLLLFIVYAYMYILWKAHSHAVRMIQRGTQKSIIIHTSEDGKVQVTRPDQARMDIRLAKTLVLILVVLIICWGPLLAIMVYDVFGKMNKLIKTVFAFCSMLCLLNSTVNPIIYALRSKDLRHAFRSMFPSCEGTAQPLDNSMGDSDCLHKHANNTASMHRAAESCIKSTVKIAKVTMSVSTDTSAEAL

In turn, `CS(=O)(=O)N(c1cccc(C(=O)NCc2cc(O)no2)c1)C1CN(C(c2ccc(Cl)cc2)c2ccc(Cl)cc2)C1` yielded a melting point of 209 °C.
The compound `CS(=O)(=O)N(c1cccc(C(=O)Nc2nccs2)c1)C1CN(C(c2ccc(Cl)cc2)c2ccc(Cl)cc2)C1` [Compound 1, 3-[{1-[Bis(4-chlorophenyl)methyl]azetidin-3-yl}(methylsulphonyl)amino]-N-(1,3-thiazol-2-yl)benzamide] gave a melting point of 244 °C.
Still for that read-out and setting: for `Cn1cc(O)nc1NC(=O)c1cccc(N(C2CN(C(c3ccc(Cl)cc3)c3ccc(Cl)cc3)C2)S(C)(=O)=O)c1` [Compound 4, 3-[{1-[bis(4-chlorophenyl)methyl]azetidin-3-yl}(methylsulphonyl)amino]-N-(4-hydroxy-1-methyl-1H-imidazol-2-yl)benzamide] the value was 134 °C.
On the same count and under the same terms, for `CS(=O)(=O)N(c1cccc(C(=O)Nc2nnc(C3CC3)s2)c1)C1CN(C(c2ccc(Cl)cc2)c2ccc(Cl)cc2)C1` [Compound 6, 3-[{1-[bis(4-chlorophenyl)methyl]azetidin-3-yl}(methylsulphonyl)amino]-N-(5-cyclopropyl-1,3,4-thiadiazol-2-yl)benzamide] the value was 226 °C.
The same measure, in the same setting: for `CS(=O)(=O)N(c1cccc(C(=O)Nc2ncccn2)c1)C1CN(C(c2ccc(Cl)cc2)c2ccc(Cl)cc2)C1` [Compound 8, 3-[{1-[bis(4-chlorophenyl)methyl]azetidin-3-yl}(methylsulphonyl)amino]-N-(pyrimidin-2-yl)-benzamide] the value was 137 °C; for `CS(=O)(=O)N(c1cccc(C(=O)Nc2cc[nH]n2)c1)C1CN(C(c2ccc(Cl)cc2)c2ccc(Cl)cc2)C1` [Compound 9, 3-[{1-[bis(4-chlorophenyl)methyl]azetidin-3-yl}(methylsulphonyl)amino]-N-(1H-pyrazol-3-yl)-benzamide], 150 °C.
`CS(=O)(=O)N(c1cccc(C(=O)Nc2nonc2N)c1)C1CN(C(c2ccc(Cl)cc2)c2ccc(Cl)cc2)C1` [Compound 10, N-(4-amino-1,2,5-oxadiazol-3-yl)-3-[{1-[bis(4-chlorophenyl)methyl]azetidin-3-yl}(methylsulphonyl)amino]benzamide] displayed a melting point of 255 °C. In addition, the IC50 in data set [1] (setting [3]) stood at 40 nM.
Taken in the same sequence, the figures for `CS(=O)(=O)N(c1cccc(C(=O)Nc2cc(O)ccn2)c1)C1CN(C(c2ccc(Cl)cc2)c2ccc(Cl)cc2)C1` [Compound 11, 3-[{1-[bis(4-chlorophenyl)methyl]azetidin-3-yl}(methylsulphonyl)amino]-N-(4-hydroxypyridin-2-yl)benzamide] were 208 °C and 170 nM.
`CS(=O)(=O)N(c1cccc(C(=O)Nc2n[nH]cc2C(N)=O)c1)C1CN(C(c2ccc(Cl)cc2)c2ccc(Cl)cc2)C1` [Compound 12, 3-[({3-[{1-[bis(4-chlorophenyl)methyl]azetidin-3-yl}(methylsulphonyl)amino]phenyl}carbonyl)-amino]-1H-pyrazole-4-carboxamide] had a melting point of 174 °C.
In turn, `CS(=O)(=O)N(c1cccc(C(=O)NCc2nc[nH]n2)c1)C1CN(C(c2ccc(Cl)cc2)c2ccc(Cl)cc2)C1` [Compound 13, 3-[{1-[Bis(4-chlorophenyl)methyl]azetidin-3-yl}(methylsulphonyl)amino]-N-(1H-1,2,4-triazol-3-ylmethyl)benzamide] registered a melting point of 210 °C.
`CS(=O)(=O)N(c1cccc(C(=O)NCc2cc[nH]n2)c1)C1CN(C(c2ccc(Cl)cc2)c2ccc(Cl)cc2)C1` [Compound 14, 3-[{1-[Bis(4-chlorophenyl)methyl]azetidin-3-yl}(methylsulphonyl)amino]-N-(1H-pyrazol-3-ylmethyl)benzamide] registered a melting point of 224 °C.
Compound `CS(=O)(=O)N(c1cccc(C(=O)NCCn2cccn2)c1)C1CN(C(c2ccc(Cl)cc2)c2ccc(Cl)cc2)C1` [Compound 15, 3-[{1-[bis(4-chlorophenyl)methyl]azetidin-3-yl}(methylsulphonyl)amino]-N[2-(1H-pyrazol-1-yl)ethyl]benzamide] registered a melting point of 264 °C. For the same compound, the IC50 in data set [1] (setting [3]) worked out at 134 nM.
In turn, `CS(=O)(=O)N(c1cccc(C(=O)NCCc2ncccn2)c1)C1CN(C(c2ccc(Cl)cc2)c2ccc(Cl)cc2)C1` [Compound 16, 3-[{1-[bis(4-chlorophenyl)methyl]azetidin-3-yl}(methylsulphonyl)amino]-N-[2-(pyrimidin-2-yl)-ethyl]benzamide] gave a melting point of 120 °C.
Same read-out and setting: then `CS(=O)(=O)N(c1cc(F)cc(C(=O)Nc2ccon2)c1)C1CN(C(c2ccc(Cl)cc2)c2ccc(Cl)cc2)C1` [Compound 17, 3-[{1-[bis(4-chlorophenyl)methyl]azetidin-3-yl}(methylsulphonyl)amino]-5-fluoro-N-(isoxazol-3-yl)benzamide], with 219 to 221 °C.
Regarding `CS(=O)(=O)N(c1cc(F)cc(C(=O)Nc2ccccn2)c1)C1CN(C(c2ccc(Cl)cc2)c2ccc(Cl)cc2)C1` [Compound 18, 3-[{1-[bis(4-chlorophenyl)methyl]azetidin-3-yl}(methylsulphonyl)amino]-5-fluoro-N-(pyridin-2-yl)benzamide], the IC50 in data set [1] (setting [3]) amounted to 6 nM.
In the case of `Cc1cc(NC(=O)c2cc(F)cc(N(C3CN(C(c4ccc(Cl)cc4)c4ccc(Cl)cc4)C3)S(C)(=O)=O)c2)no1` [Compound 21, 3-[{1-[Bis(4-chlorophenyl)methyl]azetidin-3-yl)(methylsulphonyl)amino]-5-fluoro-N-(5-methylisoxazol-3-yl)benzamide], the melting point fell in the range of 222 to 224 °C.
`CS(=O)(=O)N(c1cc(F)cc(C(=O)Nc2cnoc2)c1)C1CN(C(c2ccc(Cl)cc2)c2ccc(Cl)cc2)C1` [Compound 24, 3-[{1-[bis(4-chlorophenyl)methyl]azetidin-3-yl}(methylsulphonyl)amino]-5-fluoro-N-(isoxazol-4-yl)benzamide] returned a melting point of 234 to 236 °C.
On the same count and under the same terms, for `Cc1cc(NC(=O)c2cc(F)cc(N(C3CN(C(c4ccc(Cl)cc4)c4ccc(Cl)cc4)C3)S(C)(=O)=O)c2)on1` [Compound 26, 3-[{1-[bis(4-chlorophenyl)methyl]azetidin-3-yl}(methylsulphonyl)amino]-5-fluoro-N-(3-methylisoxazol-5-yl)benzamide] the value was 224 to 226 °C.
Turning to `Cc1ccnc(NC(=O)c2cc(F)cc(N(C3CN(C(c4ccc(Cl)cc4)c4ccc(Cl)cc4)C3)S(C)(=O)=O)c2)c1` [Compound 27, 3-[{1-[bis(4-chlorophenyl)methyl]azetidin-3-yl}(methylsulphonyl)amino]-5-fluoro-N-(4-methylpyridin-2-yl)benzamide], the melting point fell in the range of 184 to 186 °C.
The same measure, in the same setting: then `Cc1cccc(NC(=O)c2cc(F)cc(N(C3CN(C(c4ccc(Cl)cc4)c4ccc(Cl)cc4)C3)S(C)(=O)=O)c2)n1` [Compound 28, 3-[{1-[bis(4-chlorophenyl)methyl]azetidin-3-yl}(methylsulphonyl)amino]-5-fluoro-N-(6-methylpyridin-2-yl)benzamide], with 176 to 178 °C; and `CS(=O)(=O)N(c1cccc(C(=O)Nc2ccc(N)nc2)c1)C1CN(C(c2ccc(Cl)cc2)c2ccc(Cl)cc2)C1` [Compound 30, N-(6-aminopyridin-3-yl)-3-[{1-[bis(4-chlorophenyl)methyl]azetidin-3-yl}(methylsulphonyl)amino]benzamide], with 210 °C; and `CS(=O)(=O)N(c1cccc(C(=O)Nc2nc(N)n[nH]2)c1)C1CN(C(c2ccc(Cl)cc2)c2ccc(Cl)cc2)C1` [Compound 31, N-(3-amino-1H-1,2,4-triazol-5-yl)-3-[{1-[bis(4-chlorophenyl)methyl]azetidin-3-yl}(methylsulphonyl)amino]benzamide], with 222 °C.
On to `CS(=O)(=O)N(c1cccc(C(=O)NCc2nn[nH]n2)c1)C1CN(C(c2ccc(Cl)cc2)c2ccc(Cl)cc2)C1` [Compound 33, 3-[{1-[bis(4-chlorophenyl)methyl]azetidin-3-yl}(methylsulphonyl)amino]-N-(2H-tetrazol-5-ylmethyl)benzamide], for which the melting point stood at 124 °C.
`N#Cc1ccnc(NC(=O)c2cc(F)cc(NS(=O)(=O)CC3CN(C(c4ccc(Cl)cc4)c4ccc(Cl)cc4)C3)c2)c1` [Compound 34, 3-({1-[bis(4-chlorophenyl)methyl]azetidin-3-yl}methylsulphonylamino)-N-(4-cyanopyridin-2-yl)-5-fluorobenzamide] had a melting point of 165 °C.
With `CS(=O)(=O)N(c1cc(F)cc(C(=O)Nc2cc(C#N)ccn2)c1)C1CN(C(c2ccc(Cl)cc2)c2ccc(Cl)cc2)C1` [Compound 34], the percentages of inhibition in data set [2] is on record as 46%. This compound also gave an IC50 in data set [1] of 20 nM.
Taken in the same sequence, the figures for `CC(NC(=O)c1cc(F)cc(N(C2CN(C(c3ccc(Cl)cc3)c3ccc(Cl)cc3)C2)S(C)(=O)=O)c1)c1ccccn1` (stereo not shown) [Compound 39] were 66% and 33 nM.
